Test results from patent US20240408099A1, “COMBINATION […] OF KRAS G12D INHIBITORS WITH Pan ErbB FAMILY INHIBITORS” (MIRATI THERAPEUTICS, INC., priority 2021, published 2024).

Experiments:
[1] = test system: SNU410; experiment: Composite Synergy Score, Cell-Titer Glo 72 hours, dose matrix with MRTX1133; format: cell-based; details: combined with MRTX1133
Experimental: (§1) Assays for determining the synergy score for the pairwise combinations for each cell line were performed in triplicate. Three 96-well plates plus an additional 4 wells of a separate 96-well control plate for determining baseline luminescence were seeded with 2000 cells/well of a particular cell line in a total volume of 90 μl of a suitable growth medium for that cell line, e.g., RPMI 1640 medium supplemented with 10% FBS and any cell line specific reagents need for growth. The plates were incubated overnight at 37° C. in a 5% CO2 atmosphere.
(§2) To each of the designated baseline wells, 30 μl of Cell-Titer Glo reagent (CTG; Promega Corporation) was added to each well and the plates were incubated for 20 min with shaking at room temperature. Baseline luminescence was quantitated using a BMG ClarioStar multimode plate reader according to the manufacturer's instructions.
(§3) A series of working stock 1000× drug dilutions in 100% DMSO was prepared that includes an 8 point single agent dilution of MRTX 1133 and a 5-point single agent dilution of the pan ErbB family inhibitor. The dilutions used for MRTX1133 and the pan ErbB family inhibitor varied for each individual compound but were in the range of 3- to 6-fold/serial dilution.
(§4) A 10× intermediate dosing plate was prepared in serum free RPMI medium that contains arrayed single agent dilutions MRTX1133 or the pan ErbB family inhibitor. In addition, a matrix of 40 dilution combinations of MRTX1133 and the pan ErbB family inhibitor was prepared as test samples.
(§5) To each corresponding well of the three 96-well plates seeded with the appropriate cell line above, 10 μl of each 10× single agent and the 40 combinations of the dose matrix was added and the plates were incubated for 72 hours at 37 C in 5% CO2 atmosphere. A 30 μl aliquot of Cell-Titer Glo reagent (CTG) was added to each test well, the plates were incubated for 20 min with shaking at room temperature, and luminescence was quantitated using a BMG ClarioStar multimode plate reader according to the manufacturer's instructions.
(§6) The output of the data from each mathematical model is the assignment of a relative synergy score. The data reported in Table 1 are the aggregate sum of the Loewe additivity, Bliss independence, Highest Single Agent and ZIP scores (“Composite Synergy Score”).
(§7) The output of the data from each mathematical model is the assignment of a relative synergy score.

[2] = test system: Panc0403; experiment: as above; format: cell-based; details: combined with MRTX1133
Experimental: as §1, §2, §3, §4, §5, §6, §7

[3] = test system: SNU407; experiment: as above; format: cell-based; details: combined with MRTX1133
Experimental: as §1, §2, §3, §4, §5, §6, §7

[4] = test system: ASPC1; experiment: as above; format: cell-based; details: combined with MRTX1133
Experimental: as §1, §2, §3, §4, §5, §6, §7

[5] = test system: AGS; experiment: as above; format: cell-based; details: combined with MRTX1133
Experimental: as §1, §2, §3, §4, §5, §6, §7

[6] = test system: SNUC2B; experiment: as above; format: cell-based; details: combined with MRTX1133
Experimental: as §1, §2, §3, §4, §5, §6, §7

[7] = test system: HPAC; experiment: as above; format: cell-based; details: combined with MRTX1133
Experimental: as §1, §2, §3, §4, §5, §6, §7

[8] = test system: Panc0504; experiment: as above; format: cell-based; details: combined with MRTX1133
Experimental: as §1, §2, §3, §4, §5, §6, §7

[9] = test system: Panc1; experiment: as above; format: cell-based; details: combined with MRTX1133
Experimental: as §1, §2, §3, §4, §5, §6, §7

[10] = test system: SNU1033; experiment: as above; format: cell-based; details: combined with MRTX1133
Experimental: as §1, §2, §3, §4, §5, §6, §7

[11] = test system: HCC1588; experiment: as above; format: cell-based; details: combined with MRTX1133
Experimental: as §1, §2, §3, §4, §5, §6, §7

[12] = test system: LS180; experiment: as above; format: cell-based; details: combined with MRTX1133
Experimental: as §1, §2, §3, §4, §5, §6, §7

[13] = test system: SUIT2; experiment: as above; format: cell-based; details: combined with MRTX1133
Experimental: as §1, §2, §3, §4, §5, §6, §7

[14] = test system: SW1990; experiment: as above; format: cell-based; details: combined with MRTX1133
Experimental: as §1, §2, §3, §4, §5, §6, §7

[15] = test system: Panc0203; experiment: as above; format: cell-based; details: combined with MRTX1133
Experimental: as §1, §2, §3, §4, §5, §6, §7

[16] = test system: Hec1B; experiment: as above; format: cell-based; details: combined with MRTX1133
Experimental: as §1, §2, §3, §4, §5, §6, §7

[17] = test system: SNU61; experiment: as above; format: cell-based; details: combined with MRTX1133
Experimental: as §1, §2, §3, §4, §5, §6, §7

[18] = test system: Panc1005; experiment: as above; format: cell-based; details: combined with MRTX1133
Experimental: as §1, §2, §3, §4, §5, §6, §7

[19] = test system: GP2D; experiment: as above; format: cell-based; details: combined with MRTX1133
Experimental: as §1, §2, §3, §4, §5, §6, §7

[20] = test system: Panc0813; experiment: as above; format: cell-based; details: combined with MRTX1133
Experimental: as §1, §2, §3, §4, §5, §6, §7

[21] = test system: HPAFII; experiment: as above; format: cell-based; details: combined with MRTX1133
Experimental: as §1, §2, §3, §4, §5, §6, §7

[22] = test system: SNU1197; experiment: as above; format: cell-based; details: combined with MRTX1133
Experimental: as §1, §2, §3, §4, §5, §6, §7

[23] = test system: SU8684; experiment: as above; format: cell-based; details: combined with MRTX1133
Experimental: as §1, §2, §3, §4, §5, §6, §7

[24] = test system: LS513; experiment: as above; format: cell-based; details: combined with MRTX1133
Experimental: as §1, §2, §3, §4, §5, §6, §7

[25] = test system: SNU-1033 cells; experiment: SNU-1033 TGI 46 colorectal cancer xenograft, tumor volumes; format: in vivo, nude/nude mice; details: for Average Tumor Volumes: 30 mg/kg BID 2x/week
Experimental: Immunocompromised nude/nude mice are inoculated in the right hind flank with cells harboring a KRas G12D mutation. When tumor volumes reach between 200-400 mm^3 in size, the mice are divided into four to five groups of 5 mice each. The first group is administered vehicle only. […] The fourth or last groups are administered the single agent dose of the KRas G12D inhibitor using the twice daily schedule and/or the 2 sequential days followed by 5 days off schedule in combination with the single agent dose of one of the EGFR inhibitors. […] Tumor volumes are measured using a caliper every two-three days and tumor volumes are calculated by the formula: […].
20 to 30 nude/nude mice per study were inoculated in the right hind limb with 5×10^6 LS180 cells, AsPC-1 cells, GP2D cells, Panc 02.03 cells, SW1990 cells, or SNU-1033 cells.
Experimental Procedures. 20 nude/nude mice were inoculated with SNU-1033 cells in the right hind flank. When the tumors reached ˜300 mm^3 four treatment groups were established with five mice per group.

In the case of `CN(C)C/C=C/C(=O)Nc1cc2c(Nc3ccc(F)c(Cl)c3)ncnc2cc1OC1CCOC1` (centres unmarked) [Afatinib, (E)-N-(4-((3-chloro-4-fluorophenyl)amino)-7-((tetrahydrofuran-3-yl)oxy)quinazolin-6-yl)-4-(dimethylamino)but-2-enamide, reference compound], the “Composite Synergy Score” value [1] is reported as −13, the “Composite Synergy Score” value [2] is reported as 40 and the “Composite Synergy Score” value [3] is reported as 23. The “Composite Synergy Score” value [4] was 28, the “Composite Synergy Score” value [5] was 36 and the “Composite Synergy Score” value [6] was 25. The “Composite Synergy Score” value [7] was 33, the “Composite Synergy Score” value [8] was 24 and the “Composite Synergy Score” value [9] was −6. The “Composite Synergy Score” value [10] was 30, the “Composite Synergy Score” value [11] was 10 and the “Composite Synergy Score” value [12] was 76. The “Composite Synergy Score” value [13] was 45, the “Composite Synergy Score” value [14] was 57 and the “Composite Synergy Score” value [15] was 54. The “Composite Synergy Score” value [16] was −5, the “Composite Synergy Score” value [17] was 44 and the “Composite Synergy Score” value [18] was 37. For the same compound, the “Composite Synergy Score” value [19] was 26, the “Composite Synergy Score” value [20] was 20 and the “Composite Synergy Score” value [21] was 23. For the same compound, the “Composite Synergy Score” value [22] was 63, the “Composite Synergy Score” value [23] was 42 and the “Composite Synergy Score” value [24] was 69.
`C#Cc1c(F)ccc2cc(O)cc(-c3ncc4c(N5C[C@H]6CC[C@@H](C5)N6)nc(OC[C@@]56CCCN5C[C@H](F)C6)nc4c3F)c12` [MRTX1133, 4-(4-((1R,5S)-3,8-diazabicyclo[3.2.1]octan-3-yl)-8-fluoro-2-(((2R,7aS)-2-fluorohexahydro-1H-pyrrolizin-7a-yl)methoxy)pyrido[4,3-d]pyrimidin-7-yl)-5-ethynyl-6-fluoronaphthalen-2-ol] was tested, and the “Average Tumor Volumes” value ([25]; Study Day 1) was 298.92 mm^3, the “Average Tumor Volumes” value ([25]; Study Day 5) was 336.336 mm^3 and the “Average Tumor Volumes” value ([25]; Study Day 8) was 431.99 mm^3. For the same compound, the “Average Tumor Volumes” value ([25]; Study Day 12) was 468.892 mm^3, the “Average Tumor Volumes” value ([25]; Study Day 15) was 529.222 mm^3 and the “Average Tumor Volumes” value ([25]; Study Day 19) was 643.516 mm^3. For the same compound, the “Average Tumor Volumes” value ([25]; Study Day 22) was 703.368 mm^3, the “Average Tumor Volumes” value ([25]; Study Day 26) was 802.69 mm^3 and the “Average Tumor Volumes” value ([25]; Study Day 29) was 838.708 mm^3. For the same compound, the “Average Tumor Volumes” value ([25]; Study Day 33) was 895.918 mm^3 and the tumor growth inhibition ([25]; 30 mg/kg twice per week, single agent, Day 33) was 47%.
